A word on the solubility: it is how much of the substance goes into solution per volume.

Converted amounts (≈) assume the structure as drawn. Where two headings read alike, the source gives them in different places.

The series in a line: Solubility data of acadesine in injectable solution. The series is classed as physicochemical.

Take `NC(=O)c1ncn([C@@H]2O[C@H](CO)[C@@H](O)[C@H]2O)c1N` [Acadesine, 5-aminoimidazole-4-carboxamide (AICA) riboside]: the solubility is 18 mg/mL (≈ 69.7 mM) (5° C., injectable solution pH 6.0-8.0 (with antioxidant), read-out: solubility data supports); 18 mg/mL (≈ 69.7 mM) (5° C., injectable solution pH 7.2-8.0, read-out: solubility data supports); at most 21.5 mg/mL (5° C., injectable solution pH range 8.8-9.6, read-out: Available solubility data supports up to); 18 mg/mL (≈ 69.7 mM) (5 °C, injectable solution pH 8.8-9.6, read-out: solubility data supports); 60 mg/mL (≈ 232 mM) (Room temperature, injectable solution pH 6.0-8.0 (with antioxidant), read-out: solubility data supports); 60 mg/mL (≈ 232 mM) (Room temperature, injectable solution pH 7.2-8.0, read-out: solubility data supports). Besides, the solubility (Room temperature, injectable solution pH 8.8-9.6, read-out: solubility data supports) is 60 mg/mL (≈ 232 mM).

The record behind these values is patent US20120258926A1, “FORMULATIONS OF ACADESINE” (priority 2009, published 2012).
